Laboratory results published in patent publication US8846345B2, “Recombinant cell line” (The Queen's University of Belfast, priority 2002, dated 2014).

B1: IL-12 β-chain (p40), carboxyterminally hexahistidine-tagged (HIBERNIA.1 cells, pIND(SP1)-p40H) (ligand)
chain: IWELKKDVYVVELDWYPDAPGEMVVLTCDTPEEDGITWTLDQSSEVLGSGKTLTIQVKEFGDAGQYTCHKGGEVLSHSLLLLHKKEDGIWSTDILKDQKEPKNKTFLRCEAKNYSGRFTCWWLTTISTDLTFSVKSSRGSSDPQGVTCGAATLSAERVRGDNKEYEYSVECQEDSACPAAEESLPIEVMVDAVHKLKYENYTSSFFIRDIIKPDPPKNLQLKPLKNSRQVEVSWEYPDTWSTPHSYFSLTFCVQVQGKSKREKKDRVFTDKTSATVICRKNASISVRAQDRYYSSSWSEWASVPCSHHHHHH
notes: mature; Secreted by HIBERNIA.1 cells as a monomer (about 40 kD) and as a disulfide-bonded homodimer (about 80 kD); also called β chain homodimer (80 kD form)

What was measured:
[1] = tested on: IL-12 α and β monomer forms; assay: Inhibitor assay: secretion of IL-12 α and β monomer forms; conditions: 16 hr treatment
[2] = tested on: EcR293 cells; assay: MTT cytotoxicity test; assay type: cell-based, human
Description: The mitochondrial ...MTT test is widely use as a cytotoxicity test. This test is principally based on the propensity of mitochondrial dehydrogenases to cleave the tetrazolium ring of. The viability of cells is proportional to the activity of mitochondrial dehydrogenases. Cleavage of the tetrazolium ring results in the formation of purple formazan crystals. We used the MTT assay to quantify cytotoxicity of celecoxib on EcR293 cells. The test was performed in 96-well plates in which 10^5 cells per well were plated the day before application of the MTT test. Following addition of celecoxib to the culture medium, cells were induced by ponasterone A, as explained before. After 16 hours of induction, the MTT reagent (10 μl of 100 mg/ml stock solution) was added to the cells. Two hours later, the medium was removed, and the cells were dissolved in DMSO. DMSO solubilizes formazan crystals. Absorbance was measured at 550 nm using a 96-well plate spectrophotometer.

[3] = tested on: mRNA of IL-12; assay: Effect on IL-12 mRNA; assay type: cell-based, human
[4] = target: the molecule itself; assay: non-reducing SDS-PAGE and anti-β-chain immunoblot of secreted fraction
[5] = target: the molecule itself; assay: non-reducing SDS-PAGE of medium of recombinant cell lines secreting the α chain
[6] = target: B1; assay: co-expression; non-reducing and reducing SDS-PAGE with anti-α-chain and anti-β-chain immunoblots

CNc1ccc2oc(C[C@H]3O[C@@]4(CC[C@H]3C)O[C@H]([C@H](C)C(=O)c3ccc[nH]3)[C@H](C)C[C@H]4C)nc2c1C(=O)O [A23187]
secretion of IL-12 α and β monomer forms [1]: suppressed by neither | concentration at which toxicity was observed (MTT test) ([2]; 16 hr test period): > 10 µM

Cc1ccc(-c2cc(C(F)(F)F)nn2-c2ccc(S(N)(=O)=O)cc2)cc1 [Celecoxib, 4-[5-(4-methylpheny)-3-(trifluoromethyl)-IH-pyrazol-I-yl]benzenesulfonamide]
concentration at which toxicity was observed (MTT test) ([2]; human, 16 h): ≥ 100 µM | effect on mRNA of IL-12 [3]: no effect

C/C=C(/C)C(=O)O[C@H]1C(C)=C2[C@H]([C@@H]1OC(=O)CCCCCCC)[C@@](C)(OC(C)=O)C[C@H](OC(=O)CCC)[C@@]1(O)[C@H]2OC(=O)[C@@]1(C)O [thapsigargin]
secretion of IL-12 α and β monomer forms [1]: suppressed by neither | concentration at which toxicity was observed (MTT test) ([2]; human, 16 h): 5 to 10 µM

B1
binding result [4]: binds

B2: IL-12 α-chain (p35), carboxyterminal hexahistidine-tagged (ligand)
chain: RNLPVATPDPGMFPCLHHSQNLLRAVSNMLQKARQTLEFYPCTSEEIDHEDITKDKTSTVEACLPLELTKNESCLNSRETSFITNGSCLASRKTSFMMALCLSSIYEDLKMYQVEFKTMNAKLLMDPKRQIFLDQNMLAVIDELMQALNFNSETVPQKSSLEEPDFYKTKIKLCILLHAFRIRAVTIDRVMSYLNASHHHHHH
notes: mature; Expressed in EcR293 or HIBERNIA.1 cells from pIND-p35H or pIND(SP1)-p35H; N-glycosylated; also called p35H; His-tagged α-chain
binding result [5]: no binding | binding result [6]: binds
